Columns and labels:
[1] = tested on: Aβ-ABAD interaction; settings: cited from earlier work
[2] = cited from earlier work
[3] = tested on: ABAD; assay type: biochemical
Protocol: Before the assay, all the assay components except SAAC were pre-incubated for 5 minutes, and the reaction started with the addition of SAAC into the reaction mix. The reaction was carried out for a total 6 minutes at room temperature under steady-state conditions, and the decrease of NADH absorbance at 340 nm was determined every 10 seconds. Kinetic data were analyzed by PRISM (Scitech, San Diego, Calif.) to determine IC50 values and Ki. One unit of enzyme activity was defined as that which converted 1.0 μmol of substrate to product per minute.

[4] = tested on: brain mitochondria; assay: Mitochondria swelling assay in response to Ca2+; parameters: species or system mice
Protocol: Brain from mice without white matter was used for mitochondrial isolation. Brain was homogenized in 9 ml of ice-cold EB buffer (1 mmol EDTA, 1-6 mg/ml BSA) using a Dounce homogenizer until no particles could be seen. Homogenates were centrifuged at 1300×g for 5 minutes. Supernatant from this fraction was carefully laid on top of a 15% PERCOLL solution (10 ml) and then centrifuged at 16000 RPM for 10 minutes. The pellet was carefully mixed with 9 ml of mitochondrial buffer (4.098% D-mannitol, 2.56% sucrose, 0.034% K2HPO4, pH 7.3-7.4) and 200 μl of 1% digitonin. After 5 minutes incubation on ice, the mixture was centrifuged at 8000 RPM for 10 minutes. Mitochondrial pellet was washed once with mitochondrial buffer. Subsequently, the mitochondrial pellet was resuspended in 100 μl of mitochondrial buffer and was used for further experiments.
A proper amount of mitochondria was resuspended into 1 ml swelling assay buffer (150 mM KCl, 2 mM KH2PO4, 10 mM HEPES, pH 7.4) and energized by 1 mM glutamate and 1 mM malate. Calcium at varying concentrations was added into the assay buffer to trigger mitochondrial swelling. Mitochondrial permeability transition was determined by studying the rate of change in absorbance at 540 nm via a spectrophotometer.
Given that the Compounds 4, 8 and 15 could inhibit ABAD activity, it was determined whether these same compounds could decrease mitochondrial permeability transition pore (mPTP) formation.

[5] = tested on: SK-N-SH cells; assay: Mitochondrial cytochrome c oxidase (CcO) activity in Aβ-treated cells; assay type: cell-based
Protocol: SK-NSH cells were treated with 5 μM oligomer Aβ plus 1 μM of ABAD inhibitor; inhibitor alone; vehicle (VEH) without inhibitor; or Aβ alone. Forty-eight hour later, CcO activity (μmol protein mg^−1 min^−1) was measured in cell lysates.
The CcO activity was measured according to known methods (Du, et al. (2008) Nat. Med. 14:1097-105) with a cytochrome c oxidase kit (Sigma). In brief, SK-N-SH cells were incubated with ABAD inhibitor and oligomer Aβ for 48 hours. After washing the cells twice with PBS, the cells were collected and concentration was determined by the Bradford method. A suitable volume of cells and enzyme solution was added to 475 μl assay buffer. The reaction was triggered by the addition of 25 μl freshly prepared ferrocytochrome C substrate solution into the cuvette. Changes in OD550 nm were recorded immediately with an Amersham Biosciences ULTROSPECT 3100 pro spectrophotometer.
To assess the effect of ABAD inhibitor on Aft-induced mitochondrial respiratory function, CcO activity was determined.

[6] = tested on: SK-N-SH cells; assay: ATP levels in Aβ-treated cells; assay type: cell-based
Protocol: Forty-eight hour later, ATP levels (μmol mg^−1 protein) were measured in cell lysates.
To determine the effect of ABAD inhibitors on Aβ-induced impairment in energy metabolism, ATP levels were measured. […] ATP levels were measured in the cell lysates. […] Therefore, ABAD inhibitors can block mitochondrial dysfunction mediated by Aβ.

[7] = Solubility in solvents during LC method development; assay type: physicochemical
Protocol: During the development of a detection method for analytes 4, 8 and 15, multiple solvents were tested to find the optimal mobile phase. […] Acetonitrile was selected for better peak shape and compatibility with serum/brain protein precipitation. Compounds 8 and 15 were chosen as IS, because of their structural similarity. Selected reaction monitoring (SRM) acquisitions were used for sensitivity and extended dynamic range. The cone voltage and collision energy were optimized for 4, 8 and 15 and the IS by continuously infusing a mixture of the two. The optimum cone voltage was 30V.

[8] = Pharmacokinetic study and BBB penetration, LC-MS/MS of plasma and brain; assay type: in vivo, C57BL6 mice; settings: mice, intravenous 10 mg/kg
Protocol: Using the validated LCMS/MS method, blood and brain levels of 4, 8, and 15 were measured in male and female C57BL6 mice (8-10 week-old, weighing approximately 25-30 grams). The mice were housed in a room with controlled temperature (23±3° C.) and moisture level (55±15% relative humidity) and exposed to a controlled 12 hour light/12 hour dark cycle. They were allowed to access to food and water ad libitum. Mice were fasted for 6 hours with free access to water prior to the pharmacokinetic study. To determine the time course of compounds 4, 8, and 15 action in the brain, the plasma pharmacokinetics and BBB penetration capability of the inhibitors were investigated. In these experiments, compounds 4, 8, and 15 were administered to mice by intravenous injection at a dosage of 10 mg/kg. Blood and brain samples were collected from mouse at each time point (2, 5, 10, 30, 60, 120, 240, 360, 720, 1440, and 2880 minutes), a total of 11 time points. For plasma measurements, blood (approximately 500-800 μl) was collected via cardiac-puncture into tubes containing sodium heparin anti-coagulant. Plasma was separated via centrifugation (4° C., 3500 rpm, 10 minutes) and stored in −80° C. freezer. For qualitative confirmations of these compounds in CSF, samples were collected at 2 time points (240 and 1440 min) from five animals at each time point. At the time of measurement, frozen plasma samples were thawed at room temperature and vortexed thoroughly. The following quantities were estimated using non-compartmental calculations performed with WINNONLIN 5.2 (Pharsight, Sunnyvale, Calif.): the area under the plasma concentration-time curve during the period of observation (AUC0-τ); the area under the plasma concentration-time curve from zero to infinity (AUC0-∞); the maximum plasma concentration (Cmax); the time to reach Cmax (Tmax); and the half-life (t1/2).
The LC-MS/MS method described above was used for the determination of 4, 8 and 15 in plasma, brain, and CSF for pharmacokinetic study. Based on the initial concentration data, the pharmacokinetic parameters including the area under the plasma concentration-time curve during the period of observation (AUC0-t), the area under the plasma concentration-time curve from zero to infinity (AUC0-∞) the maximum plasma concentration (Cmax) the time to reach Cmax (Tmax) and the half-life (t1/2) are shown in Table 8.

## Nc1c(/N=N/c2ccc(-c3ccc(/N=N/c4cc(S(=O)(=O)O)c5ccccc5c4N)cc3)cc2)cc(S(=O)(=O)O)c2ccccc12 [Congo red]
[1]
  inhibition of Aβ binding: 100%
[2]
  cell permeability: poor cell permeability

## fentizole
[1]
  inhibitory activity: exhibit inhibitory activity

## thioflavin T
[1]
  inhibition of Aβ binding: ~20%

## COc1ccc2nc(N[C@@H](c3ccc(F)cc3)P(=O)(OC)OC)sc2c1 [Compound 15, Dimethyl ((4-fluorophenyl) ((6-methoxybenzo[d]thiazol-2-yl)amino)methyl) phosphonate]
[3]; at 10 μM
  inhibition of SAAC reduction by ABAD: did not inhibit
[3]; at 100 or 400 μM
  inhibitory effect on SAAC reduction by ABAD: slight inhibitory effect
[4]; with calcium
  calcium-mediated mitochondrial swelling: antagonized calcium-mediated mitochondrial swelling
[4]; without calcium
  mitochondrial swelling without calcium: did not affect mitochondrial swelling
[5]; 1 μM inhibitor without Aβ
  CcO activity, inhibitor alone: had no effect on CcO activity
[5]; 5 μM oligomer Aβ1-42 plus 1 μM inhibitor, 48 hours
  CcO activity: reversed the Aβ-mediated decrease of CcO activity
[6]; 5 μM Aβ1-42 plus 1 μM inhibitor
  ATP levels: rescued ATP levels
[6]; inhibitor without Aβ
  ATP levels, inhibitor alone: comparable to cells treated with vehicle alone
[7]; methanol or acetonitrile
  solubility in methanol or acetonitrile: dissolved readily
[7]; water
  solubility in water: dissolved partially
[8]; Brain
  t1/2: 11.4 h
[8]; Plasma
  t1/2: 6.1 h

From patent US9738668B2
